Converted amounts (≈) assume the structure as drawn. Like-named read-outs stand apart in the source and are kept apart here.
Columns and labels:
M. smegmatis WT (SMR5) = assay: microbe, parasite or virus in culture; type: cell-based; details: for MIC: Mycolicibacterium smegmatis
wild-type M. bovis BCG = assay: microbe, parasite or virus in culture; type: cell-based; details: for MIC: Mycobacterium tuberculosis variant bovis BCG, BCG, read-out: MIC WT
[1] = system: M. smegmatis ms3747 mutant ML77; type: cell-based; details: ms3747 mutant versus wt M. smegmatis
M. tuberculosis = assay: Minimal inhibitory concentration of copper on Hartmans de Bond medium; type: cell-based
E. coli = details: cited from earlier work
[2] = system: M. smegmatis SMR5 wt (pMS2) and rv0194-expressing strain (pML655); type: cell-based
[3] = system: M. smegmatis SMR5 with rv0194 expression vector pML655; type: cell-based
[4] = system: M. smegmatis ΔmspA mutant MN01; details: ΔmspA mutant compared with wild-type M. smegmatis; cited from earlier work

SMILES	MIC (M. smegmatis WT (SMR5); read-out: MIC WT) [µg/mL]	MIC (wild-type M. bovis BCG) [µg/mL]	also measured
CN(C)[C@@H]1C(=O)C(C(N)=O)=C(O)[C@@]2(O)C(=O)C3=C(O)c4c(O)cccc4[C@@](C)(O)[C@H]3C[C@@H]12 [Tetracyclin]			MIC WT (M. smegmatis WT (SMR5)): 0.3 µg/mL (≈ 0.675 µM); MIC WT (wild-type M. bovis BCG): 2 µg/mL (≈ 4.5 µM)
O=C(N[C@H](CO)[C@H](O)c1ccc([N+](=O)[O-])cc1)C(Cl)Cl [Chloramphenicol]	32 (≈ 99 µM)	8 (≈ 24.8 µM)	
[H]/N=C(/N)N[C@H]1[C@H](O)[C@@H](O)[C@H](O[C@@H]2O[C@@H](C)[C@](O)(C=O)[C@H]2O[C@@H]2O[C@@H](CO)[C@H](O)[C@@H](O)[C@@H]2NC)[C@@H](N/C(N)=N\[H])[C@@H]1O [Streptomycin]		0.5 (≈ 0.86 µM)	
[Cu] [copper]			copper concentration affecting growth, mutant relative to wt [1]: four-fold lower; minimal inhibitory concentration of copper (M. tuberculosis): less than 24 μM; minimal inhibitory concentration of copper (E. coli): ≈ 3 mM
COC(=O)[C@H]1[C@H]2C[C@@H]3c4[nH]c5cc(OC)ccc5c4CCN3C[C@H]2C[C@@H](OC(=O)c2cc(OC)c(OC)c(OC)c2)[C@@H]1OC [reserpine]			growth with reserpine in the presence of ethidium bromide [2]: completely inhibited growth of both strains; accumulation of ethidium bromide after addition of reserpine [3]: quickly reached levels observed for wt M. smegmatis
CC[C@H]1OC(=O)[C@H](C)[C@@H](O[C@H]2C[C@@](C)(OC)[C@@H](O)[C@H](C)O2)[C@H](C)[C@@H](O[C@@H]2O[C@H](C)C[C@H](N(C)C)[C@H]2O)[C@](C)(O)C[C@@H](C)C(=O)[C@H](C)[C@@H](O)[C@]1(C)O [Erythromycin]	2.5 (≈ 3.41 µM)		
CC[n+]1c(-c2ccccc2)c2cc(N)ccc2c2ccc(N)cc21 [ethidium bromide]			MIC (M. smegmatis WT (SMR5); read-out: MIC of ethidium bromide): 1.25 µg/mL
CO[C@@H]1[C@@H](OC(N)=O)[C@@H](O)[C@H](Oc2ccc3c(O)c(NC(=O)c4ccc(O)c(CC=C(C)C)c4)c(=O)oc3c2C)OC1(C)C [Novobiocin]	4 (≈ 6.53 µM)		
CN[C@H](CC(C)C)C(=O)N[C@H]1C(=O)N[C@@H](CC(N)=O)C(=O)N[C@H]2C(=O)N[C@H]3C(=O)N[C@H](C(=O)N[C@H](C(=O)O)c4cc(O)cc(O)c4-c4cc3ccc4O)[C@H](O)c3ccc(c(Cl)c3)Oc3cc2cc(c3O[C@@H]2O[C@H](CO)[C@@H](O)[C@H](O)[C@H]2O[C@H]2C[C@](C)(N)[C@H](O)[C@H](C)O2)Oc2ccc(cc2Cl)[C@H]1O [Vancomycin]	1.25 (≈ 0.863 µM)	5 (≈ 3.45 µM)	
CC1(C)S[C@@H]2[C@H](NC(=O)[C@H](N)c3ccccc3)C(=O)N2[C@H]1C(=O)O [Ampicillin]	125 (≈ 358 µM)	62.5 (≈ 179 µM)	increased resistance toward ampicillin [4]: 16 fold
